In ChEMBL document CHEMBL4619724, “Environment-sensitive fluorescent inhibitors of histone deacetylase” (Bioorg Med Chem Lett, 2020) one finds Activity, IC50 and Drug uptake data, which are given here for five compounds.

pIC50: −log10 of the molar value.

Data set [1] relates to MOLT-4. Put plainly: Induction of apoptosis in human MOLT4 cells assessed as increase in apoptotic cells at 5 uM incubated for 24 hrs by Annexin V and PE staining based flow cytometric analysis relative to control. The class given is functional.
The test system of data set [2] is MOLT-4. As to the kind of experiment: Antiproliferative activity against human MOLT4 cells incubated for 24 hrs by CCK8 assay. The format is functional, cell-based. Conditions: MOLT-4, 24 h; call rule not given here.
For the next data set, the system named is K562. Put plainly: Antiproliferative activity against human K562 cells incubated for 24 hrs by CCK8 assay. The format is functional, cell-based. Conditions: K562, 24 h. On the technique in general: Formazan colour is commonly taken as a measure of viable cells.
The subject of the next data set is PC-3. Put plainly: Antiproliferative activity against human PC3 cells incubated for 24 hrs by CCK8 assay. The format is functional, cell-based. Conditions: PC-3, 24 h.
The next data set relates to A549. Put plainly: Antiproliferative activity against human A549 cells incubated for 24 hrs by CCK8 assay. The class given is functional, cell-based. Conditions: A549, 24 h.
Data set [3] is described as follows: Drug uptake in cytoplasm in human PC3 cells overexpressing HDAC at 5 uM incubated for 30 mins by fluorescence microscopic method. The format is ADME, subcellular. Conditions: pc-3, 0.5 h.
The nature of data set [4]: Drug uptake in cytoplasm in human MOLT4 cells overexpressing HDAC at 5 uM incubated for 30 mins by fluorescence microscopic method. The class given is ADME, subcellular. Conditions: molt-4, 0.5 h.
Data set [5] in a line: Drug uptake in cytoplasm in HEK293 cells harboring low HDAC expression at 5 uM incubated for 30 mins by fluorescence microscopic method. The class given is ADME, subcellular. Conditions: human, hek293, 0.5 h.
Data set [6] can be described thus: Drug uptake in human MOLT4 cell membrane at 5 uM incubated for 30 mins by DID staining based confocal microscopic method. The class given is ADME. Conditions: molt-4, 0.5 h.
Data set [7] can be described thus: Drug uptake in nucleus in human MOLT4 cells at 5 uM incubated for 30 mins by Hoechst 33342 staining based confocal microscopic method. Conditions: molt-4, 0.5 h. The format is ADME, subcellular.
Data set [8] in a line: Drug uptake in tumor tissue of nude mouse xenografted with human PC3 cells assessed as increase in fluorescence intensity at 10 uM by fluorescence upright microscopic method. The format is ADME, tissue-based, Neoplasm, PC-3. Conditions: in vivo. On the technique in general: In xenograft studies the graft and the host belong to different species.
The nature of data set [9]: Drug uptake in nude mouse skin assessed as increase in fluorescence intensity in tissue at 10 uM by fluorescence upright microscopic method. The format is ADME, tissue-based, Zone of skin. Conditions: in vivo.
Data set [10] in a line: Drug uptake in tumor tissue of nude mouse xenografted with human PC3 cells assessed as increase in fluorescence intensity in tumor tissue at 10 uM in presence of HDAC inhibitor, SAHA by fluorescence upright microscopic method. The format is ADME, tissue-based, Neoplasm, PC-3. Conditions: in vivo.
The nature of data set [11]: Drug uptake in nude mouse thigh muscles assessed as increase in fluorescence intensity in tissue at 10 uM by fluorescence upright microscopic method. The class given is ADME, tissue-based, Thigh muscle. Conditions: in vivo.
The target of another data set is Histone deacetylase. Put plainly: Inhibition of HDAC in human HeLa cell extracts assessed as inhibition of substrate deacetylation using Boc-Lys (acetyl)-AMC as substrate by fluorescence based assay.

As for `O=C(CCCCCCC(=O)Nc1ccccc1)NO` [VORINOSTAT], in the data set with MOLT-4 [1], the Activity was found to be 29.58%.
In general, pIC50 refers to −log10 of the IC50, conventionally taken in molar units. Read a low pIC50 as a large IC50. As to `CN(C)S(=O)(=O)c1ccc(NCCCCCCC(=O)NO)c2nonc12`, the pIC50 was 5.11 in the data set with MOLT-4 [2], 4.96 with K562, 4.28 in the data set on PC-3 and less than 4.00 in the data set on A549. Moreover, the Activity in the data set on MOLT-4 [1] came out at 20.02%. In addition, the Drug uptake result in data set [3] is given as “Active”; in [4] it was “Active”; in data set [5], “Not Active”; in data set [6], 62.1%; in [7] it was “Not Active”; in [8], “Active”. In addition, the Drug uptake entry in data set [9], in [10] and in data set [11] was “Not Active” throughout.
As usually defined, the IC50 is the concentration needed to halve the response being measured. On to `CN(C)S(=O)(=O)c1ccc(NCCCCCNC(=O)NCC(=O)NO)c2nonc12`, for which, at Histone deacetylase, the IC50 came to 7.58 µM.
For the compound `CC(C)CC(NC(=O)NCCCCCNc1ccc(S(=O)(=O)N(C)C)c2nonc12)C(=O)NO` (configuration not stated), the 50% inhibitory concentration (IC50) on Histone deacetylase is more than 100 µM.
In the case of `CN(C)S(=O)(=O)c1ccc(NCCCCCC(=O)NO)c2nonc12`, the pIC50 was 5.45 in the data set with MOLT-4 [2], 4.82 in the data set with K562, 4.51 in the data set on PC-3 and less than 4.00 with A549. In addition, the Activity in the data set with MOLT-4 [1] was determined as 23.3%.
